Laboratory results as given in article PMC6479402, “Anti-Herpetic, Anti-Dengue and Antineoplastic Activities of Simple and Heterocycle-Fused Derivatives of Terpenyl-1,4-Naphthoquinone and 1,4-Anthraquinone” (Molecules, 2019).
Where “and” joins values, the source holds several entries; their conditions need not be identical. Equal entries are not always repeated. Where two headings read alike, the source gives them in different places.

Assays:
Jurkat = experiment: MTT cytotoxicity assay; format: cell-based; conditions: Homo sapiens, Jurkat ATCC TIB-152, 48 h, read-out: IC50 ± SD, Jurkat
Protocol: (§1) Then, each diluted molecule was added to the cells and incubated for further 48 h at 37 °C, 5% CO2. […] The DMSO was then added to dissolve the formed formazan crystals and absorbance was determined spectrophotometrically at 570 nm. […] IC50 values were expressed as the mean ± standard deviation (M ± SD) of two independent experiments done in quadruplicate.

HeLa = experiment: MTT cytotoxicity assay; format: cell-based; conditions: Homo sapiens, HeLa ATCC CRL-1958, 48 h, read-out: IC50 ± SD, HeLa
Protocol: as §1

Vero = experiment: MTT cytotoxicity assay, non-tumor cells; format: cell-based, Cercopithecus aethiops; conditions: Chlorocebus sabaeus
Protocol: The in vitro cytotoxicity evaluation of quinones was performed using the 3-(4,5 dimethylthiazol-2-yl)-2,5-diphenyltetrazolium bromide (MTT, Sigma, Cream Ridge, NJ, USA) assay as described by Betancur-Galvis et al. 2002 [22]. Briefly, Vero and HeLa cell lines were seeded at 2.0 × 10^3 cells per well of 96-well plates in DMEM supplemented with 10% of inactivated FBS, and were incubated for 24 h at 37 °C, 5% CO2. Then, each diluted molecule was added to the cells and incubated for further 48 h at 37 °C, 5% CO2. Jurkat cell line at 3 × 10^3 cells per well in a 96-well round-bottomed plate and diluted substances in RPMI-1640 medium (Sigma) supplemented with 10% FBS were plated simultaneously. After 48 h of treatment at 37 °C, 5% CO2, the media was carefully removed and 28 µL of MTT solution (4 mg/mL) was added to each well, and the plates were incubated for 2 h at 37 °C, 5% CO2. The DMSO was then added to dissolve the formed formazan crystals and absorbance was determined spectrophotometrically at 570 nm.
The minimal dilution of compound that caused 50% inhibition of the cells (IC50) was calculated by linear regression analysis of the dose-response curves generated from the absorbance data with the statistical GraphPad Prisma 5.0. IC50 values were expressed as the mean ± standard deviation (M ± SD) of two independent experiments done in quadruplicate.

[1] = test system: Human Herpesvirus type 2 (HHV-2); experiment: End-point titration technique (EPTT), anti-herpetic screening on infected Vero cells; format: cell-based, Human Herpesvirus 2; conditions: for Rf (reduction factor of the viral titer), HHV-2: 10 TCID50, 48 h; for minimal effective concentration: Human alphaherpesvirus 2, 10 TCID50, 48 h, tested 6.25-50 µg/mL, read-out: 10 TCID50: non-toxic concentration that showed viral reduction factor, HHV-2
Protocol: (§2) The in vitro antiviral evaluation of the 27 substances against Human Herpesvirus type 1 (HHV-1) and 2 (HHV-2) was made on infected Vero cells, using the end-point titration technique (EPTT).
(§3) The antiviral activity of molecules against 1 and 10 Cell Culture Infectious Dose 50% (10TCID50) of HHV-1 and HHV-2, respectively, was determined using end-point titration technique (EPTT). Vero cells grown in 96-well plates at a density of 2.0 × 10^4 cells/well were incubated at 37 °C in 5% CO2 atmosphere until constitute 80% of cell monolayer. Then, viral suspensions of HHV-1 or HHV-2 with concentrations of 6.25 µg/mL to 50 µg/mL of compounds were performed in DMEM supplemented with 2% FBS containing 1% and 0.5% carboxymethylcellulose (CMC) for HHV-1 and HHV-2, respectively. Mixture was incubated during 15 minutes at room temperature and was added to the cell monolayer. After 48 h of incubation at 37 °C (5% CO2), the cytopathic effect was examined, the microplates were fixed with 3.5% formaldehyde and stained with 0.2% crystal violet. Two independent experiments by quadruplicate for each viral serotype and each were carried out. Positive controls, such as dextran sulfate (DS) and acyclovir (A) for early stages and late stages of infection, respectively, were included.

[2] = test system: Human Herpesvirus type 1 (HHV-1); experiment: as above; format: cell-based; conditions: for minimal effective concentration: Human alphaherpesvirus 1, 1 TCID50, 48 h, tested 6.25-50 µg/mL, read-out: 1 TCID50: non-toxic concentration that showed viral reduction factor, HHV-1; for Rf (reduction factor of the viral titer), HHV-1: 1 TCID50, 48 h
Protocol: as §2, §3

DENV-2 = experiment: Plaque reduction assay, simultaneous and post-infection treatment, BHK-21 cells; format: cell-based, Dengue virus type 2
Protocol: (§4) To define the stage of the viral replicative cycle where NQ 4 exerts its action, simultaneous and post-infection treatments against HHV-1 and HHV-2 were performed. […] First, we determined the inhibitory concentration 50% (IC50) for the compound and drug positive controls on infected cells and their effects on non-tumoral Vero cells, to define the concentration of evaluation and to calculate the antiviral selectivity index (SI). Then, the concentration of NQ 4 that reduced the number of viral plaques by 50% (EC50) was determined from the dose-response curves.
Against DENV, the effect of NQ 4 either simultaneously or post-infection was also evaluated by the plaque reduction assay as previously described. Concentrations employed for this assay were from 0.4 µg/mL to 1.6 µg/mL. In this test, BHK-21 cell monolayers grown in 24-well plates were infected with 100 PFU/well of DENV-2 and treatments were performed in the same way to describe for Herpesviruses. Moreover, the monolayers were incubated for 6 days, fixed and stained with a solution of 3.5% formaldehyde with 0.2% crystal violet, and the viral plaques were counted. Heparin (H) was included as a positive control in the simultaneous assay, and ribavirin (R) was the positive control in after infection treatment.

HHV-1 [3] = experiment: HHV-1 viral entry assay on Vero cells (plaque reduction); format: cell-based, Human Herpesvirus 1; conditions: 0.1–0.8 µg/mL
Protocol: (§5) The effect of NQ 4 in the initial phases of the HHV-1 viral replication was done as previously described by Cardozo et al., 2011 [53]. In the attachment assay, pre-chilled (1 h at 4 °C) Vero cell monolayers were exposed to viruses (100 PFU/well) in presence or absence of the compound and were incubated for 2 h at 4 °C. After incubation, the substance and unbounded viruses were removed with cold PBS; cells were overlaid with CMC 1% and incubated for 72 h at 37 °C (5% CO2). In the entry assay, pre-chilled cells were infected with viruses (100 PFU/well) and incubated for 2 h at 4 °C. After this time, the unbound viruses were removed with cold PBS; cells were treated with different concentrations of pre-warmed compound, and then incubated for 1 h at 37 °C. Unabsorbed viruses were inactivated using citrate buffer (pH = 3.0) and then cells were washed with PBS, overlaid with CMC 1%, and incubated for 72 h at 37 °C (5% CO2). In both assays, further procedures were the same mentioned previously for the plaque reduction assay and dextran sulfate (DS) was included as positive control.
(§6) In these tests, the evaluated NQ 4 concentration range was from 0.1 to 0.8 µg/mL and the effective concentration fifty (EC50), the concentration that reduces the 50% of plaque forming units, was determined from dose-effect curves by linear regression methods for each compound. […]

HHV-1 [4] = experiment: HHV-1 viral attachment assay on Vero cells (plaque reduction); format: cell-based, Human Herpesvirus 1; conditions: Human alphaherpesvirus 1, Vero
Protocol: as §5, §6

HHV-1 [5] = experiment: Plaque reduction assay, simultaneous and post-infection treatment, Vero cells; format: cell-based, Human Herpesvirus 1
Protocol: as §4
(§7) The potential antiviral mechanism of NQ 4 was evaluated by the plaque reduction assay as previously described by us. Vero cell monolayers grown in 24-well plates were infected with 100 PFU/well of each virus. For simultaneous treatment, the compound and the virus were added simultaneously to the cell monolayers and incubated for 1 h at 37 °C (5% CO2). Then, cells were washed with phosphate buffered saline (PBS, pH = 7.0) and CMC at 1% and 0.75% was added for HHV-1 and HHV-2, respectively. In post-infection treatment, virus was added to cell monolayer and incubated for 1 h at 37 °C (5% CO2). After incubation, washing was performed with PBS and molecule previously prepared in CMC 1% and 0.75% for HHV-1 and HHV-2 respectively, was added. In both treatments, NQ 4 was prepared at concentrations from 0.4 µg/mL to 3.1 µg/mL and the cell monolayers allowed to incubate for 72 h. Subsequently, cells were fixed and stained with a solution of 3.5% formaldehyde with 0.2% crystal violet, and the viral plaques were counted. Dextran sulfate (DS) was included as positive control in simultaneous assay and acyclovir (A) was the positive control in after infection treatment.

HHV-2 = experiment: as above; format: cell-based, Human Herpesvirus 2
Protocol: as §4, §7

[6] = Vero ATCC CCL-81, 48 h, MTT, read-out: IC50 ± SD, Vero
[7] = post-infective stages, acyclovir 1.5 µg/mL
[8] = simultaneous treatment, PFU, NQ 4 0.4–3.1 µg/mL, DS 5 µg/mL

Cc1cc(C)c2c3c(oc2c1)C(=O)c1cc(CCCC(C)C)ccc1C3=O [HetQ 20]
IC50 (Jurkat): 42.2 ± 0.7 µM | IC50 (HeLa): > 69.3 µM | IC50 (Vero; [6]): 153 ± 4.5 µM

Cc1c2c(nc3ccccc13)C(=O)c1cc(CCCC(C)C)ccc1C2=O [HetQ 21]
IC50 (Jurkat): > 69.9 µM | IC50 (HeLa): > 69.9 µM

CC(C)=CCCc1ccc2c(c1)C(=O)C=CC2=O [NQ 1]
IC50 (Jurkat): > 104 µM | IC50 (HeLa): > 104 µM

CC(C)CCCc1ccc2c(c1)C(=O)C(Br)=C(Br)C2=O [NQ 5]
IC50 (Jurkat): 23.5 ± 1.7 µM | IC50 (HeLa): 19.7 ± 0.3 µM | IC50 (Vero; [6]): 15.7 ± 2.7 µM

Cc1ccc2[nH]c3c(c2c1)C(=O)c1ccc(CCCC(C)C)cc1C3=O [HetQ 19]
IC50 (Jurkat): > 72.4 µM | IC50 (HeLa): 77 ± 1.9 µM | IC50 (Vero; [6]): 212 ± 8.6 µM

CC1(C)CCCc2cc3c(cc21)C(=O)C(Cl)=C(Cl)C3=O [AQ 12]
Rf (reduction factor of the viral titer), HHV-2 [1]: 1 × 10^2 | Rf (reduction factor of the viral titer), HHV-2 ([1]; listed as 12): 10^2 | minimal effective concentration [1]: 25 µg/mL | IC50 (Jurkat): 27.5 ± 0.6 µM | IC50 (HeLa): 38.5 ± 1.2 µM | IC50 (Vero; [6]): 136 ± 4.4 µM | minimal effective concentration [2]: > 50 µg/mL

CC(C)CCCc1ccc2c(c1)C(=O)C(Cl)=C(Cl)C2=O [NQ 4]
Rf (reduction factor of the viral titer), HHV-2 [1]: 1 × 10^2 | Rf (reduction factor of the viral titer), HHV-2 ([1]; listed as 4): 10^2 | minimal effective concentration [1]: 12.5 µg/mL | IC50 (Jurkat): 36.3 ± 2 µM | IC50 (HeLa): 46.6 ± 3.3 µM | IC50 (Vero; [6]): ≥ 643 µM | IC50 (Vero; non-tumoral Vero cells, data not shown, read-out: IC50 on Vero cells): > 200 µg/mL | Antiviral activity in post-infection treatment, DENV-2 (DENV-2; post-infective stages, ribavirin 3.7 µg/mL): no activity | Concentration showing antiviral activity against DENV-2 (DENV-2; pre-infective stages): 5.1 µM | Concentration showing significant antiviral activity against DENV-2 (DENV-2; simultaneous treatment (pre-infective stages), tested 0.4–1.6 µg/mL): 1.6 µg/mL | Effect on HHV-1 viral entry (HHV-1 [3]): not significant | EC50 (HHV-1 [4]): 0.38 µM | EC50 (HHV-1 [4]; 2 h at 4 °C, 0.1–0.8 µg/mL): 0.12 µg/mL | EC50 (HHV-1 [5]; Human alphaherpesvirus 1, simultaneous treatment, read-out: EC50, anti-herpetic activity on pre-infective stages, HHV-1): < 0.4 µg/mL and < 1.28 µM | Antiviral activity in post-infection treatment, HHV-1 (HHV-1 [5]; [7]): no activity | Antiviral activity in simultaneous treatment, HHV-1 (HHV-1 [5]; [8]): anti-herpetic activity in all concentrations tested | Rf (reduction factor of the viral titer), HHV-1 [2]: 1 × 10^2 | Rf (reduction factor of the viral titer), HHV-1 ([2]; listed as 4): 10^2 | minimal effective concentration [2]: 6.25 µg/mL | EC50 (HHV-2; Human alphaherpesvirus 2, simultaneous treatment, read-out: EC50, anti-herpetic activity on pre-infective stages, HHV-2): < 0.4 µg/mL and < 1.28 µM | Antiviral activity in post-infection treatment, HHV-2 (HHV-2; [7]): no activity | Antiviral activity in simultaneous treatment, HHV-2 (HHV-2; [8]): anti-herpetic activity in all concentrations tested
